Values of other authors in PMC4876630 (Theranostics, 2016).

Settings: ref [4]-[8]

## CC[C@@]1(O)C(=O)OCc2c1cc1n(c2=O)Cc2cc3ccccc3nc2-1 [CPT, camptothecin]
  Aqueous solubility: 2 to 3 µg/mL
